Entries after “also recorded” stand apart in the source; their conditions may differ.
Legend:
Assay type in all cases: in vivo
[1] = tested on: ApoE−/− mice; experiment: Blood lipids (TG, TC, HDL-C, LDL-C) in plasma, high-fat diet atherosclerosis model; design: TG / TC / HDL-C / LDL-C: unit not given here; settings: for Effect on LDL-c (in words) / Effect on TC (in words): compared to the model group
Method: (§1) Upon arrival, ApoE−/− mice were acclimatized to the experimental facility for 3 days. After an overnight fast (12 hours), blood samples were collected to measure baseline levels of serum lipids (TC, TG, HDL-C, LDL-C) and LDH. Control mice were fed a regular diet, while the remaining mice were fed a high-fat diet for 18 weeks. The regular diet contained 11% kcal fat and 0% cholesterol, while the high-fat diet contained 40% kcal fat and 0.21% cholesterol. At 8 weeks of high-fat feeding, the animals underwent echocardiography and blood biochemical tests. Based on their TC values, they were randomly assigned to the following groups: blank control, model control, positive control, AQ-C-a, DMS-ASD, and DMS (refer to Table 2 in Section 6.5). Drug administration continued for 10 weeks. During the experiment, the animals' appearance, behavior, and physical condition were observed, and their body weight, echocardiography, serum lipids (TC, TG, HDL-C, and LDL-C), and blood biochemistry (LDH, SOD, and MDA) were monitored. At the end of the experiment (Week 18), hearts and aortas were collected for Oil Red O staining and histopathological analysis.
(§2) Animals were fasted the night before blood collection. Blood samples were collected and anticoagulated with heparin to prepare plasma for the detection of TG, TC, HDL-C, LDL-c, and LDH. Blood was collected at six time points: Week 0, Week 8, Week 10, Week 12, Week 16, and Week 18. SOD and MDA levels were measured at Week 16 and Week 18.

[2] = tested on: ApoE−/− mice; experiment: Plasma LDH content, high-fat diet atherosclerosis model; design: LDH: unit not given here
Source text: Upon arrival, ApoE−/− mice were acclimatized to the experimental facility for 3 days. […] Control mice were fed a regular diet, while the remaining mice were fed a high-fat diet for 18 weeks. […] At 8 weeks of high-fat feeding, the animals underwent echocardiography and blood biochemical tests. […] Drug administration continued for 10 weeks. During the experiment, the animals' appearance, behavior, and physical condition were observed, and their body weight, echocardiography, serum lipids (TC, TG, HDL-C, and LDL-C), and blood biochemistry (LDH, SOD, and MDA) were monitored. At the end of the experiment (Week 18), hearts and aortas were collected for Oil Red O staining and histopathological analysis. Animals were fasted the night before blood collection. Blood samples were collected and anticoagulated with heparin to prepare plasma for the detection of TG, TC, HDL-C, LDL-c, and LDH.

[3] = tested on: ApoE−/− mice; experiment: Plasma SOD and MDA, high-fat diet atherosclerosis model; design: MDA: unit not given here; settings: QD: Atorvastatin 20 mg/kg P.O., AQ-C-a 300 mg/kg P.O., DMS-ASD 300 mg/kg P.O., DMS 20 mg/kg SC
Method: as §1, §2

[4] = tested on: ApoE−/− mice; experiment: Aortic fat plaque examination (oil red O staining); settings: for Effect on percentage of aortic plaque (in words): end of 18th week, compared with the model group; for % Patch area (aortic plaque): week 18, oil red staining of aorta, 10 weeks QD: Atorvastatin 20 mg/kg P.O., AQ-C-a 300 mg/kg P.O., DMS-ASD 300 mg/kg P.O., DMS 20 mg/kg SC
Method: as §1
Aortic oil red O staining was performed. The experimental endpoint was set at Week 10 post-treatment. After euthanasia, the aorta was collected from the aortic arch to the iliac artery and subjected to oil red O staining to analyze the accumulation of fat plaques in the aorta.

[5] = tested on: ApoE−/− mice; experiment: Heart weight and heart weight index (tibial length corrected); settings: 10 weeks QD: Atorvastatin 20 mg/kg P.O., AQ-C-a 300 mg/kg P.O., DMS-ASD 300 mg/kg P.O., DMS 20 mg/kg SC; for Heart: heart weight at end of experiment (week 18)
Method: At the experimental endpoint, hearts and tibias were collected. The heart was weighed and its weight index was calculated using tibial length for correction, with the formula: Heart Index=Heart Weight (g)/Tibial Length (cm)×100%. The heart was fixed in 4% PFA and subjected to HE staining to evaluate fat plaques in the outflow tract.

[6] = tested on: ApoE−/− mice; experiment: Body weight, high-fat diet atherosclerosis model; settings: HFD-fed ApoE−/− mice, compared with control group; FIG. 1
Method: as §1
All animals were given medicine […] once a day during the medication period;

[7] = week 0, baseline before HFD and dosing, fasted plasma, mean±standard error
[8] = week 8 of HFD, before start of dosing, fasted plasma
[9] = week 10 of HFD (2 weeks dosing), QD: Atorvastatin 20 mg/kg P.O., AQ-C-a 300 mg/kg P.O., DMS-ASD 300 mg/kg P.O., DMS 20 mg/kg SC
[10] = week 12 of HFD (4 weeks dosing), QD: Atorvastatin 20 mg/kg P.O., AQ-C-a 300 mg/kg P.O., DMS-ASD 300 mg/kg P.O., DMS 20 mg/kg SC
[11] = week 16 of HFD (8 weeks dosing), QD: Atorvastatin 20 mg/kg P.O., AQ-C-a 300 mg/kg P.O., DMS-ASD 300 mg/kg P.O., DMS 20 mg/kg SC
[12] = week 18 of HFD (10 weeks dosing), QD: Atorvastatin 20 mg/kg P.O., AQ-C-a 300 mg/kg P.O., DMS-ASD 300 mg/kg P.O., DMS 20 mg/kg SC

Dimyricetin-yl-diselenide [DMS]
Effect on LDL-c (in words) [1]: trend of reducing; also recorded: inhibiting the increase
Effect on TC (in words) [1]: trend of reducing; also recorded: inhibiting the increase
HDL-C [1, 7]: 1.63 ± 0.12
LDL-C [1, 7]: 6.07 ± 0.19
TC [1, 7]: 11.84 ± 0.85
TG [1, 7]: 1.99 ± 0.14
HDL-C [1, 8]: 1.38 ± 0.15
LDL-C [1, 8]: 22.09 ± 1.86
TC [1, 8]: 28.69 ± 2.34
TG [1, 8]: 1.26 ± 0.07
HDL-C [1, 9]: 1.44 ± 0.07
LDL-C [1, 9]: 23.38 ± 1.46
TC [1, 9]: 30.95 ± 1.95
TG [1, 9]: 2.14 ± 0.1
HDL-C [1, 10]: 1.44 ± 0.07
LDL-C [1, 10]: 23.38 ± 1.46
TC [1, 10]: 32.35 ± 1.96
TG [1, 10]: 2.29 ± 0.2
HDL-C [1, 11]: 2.27 ± 0.15
LDL-C [1, 11]: 21.1 ± 1.23
TC [1, 11]: 27.78 ± 1.36
TG [1, 11]: 2.71 ± 0.35
HDL-C [1, 12]: 2.1 ± 0.19
LDL-C [1, 12]: 15.94 ± 1.32
TC [1, 12]: 20.92 ± 1.78
TG [1, 12]: 1.27 ± 0.06
Effect on plasma LDH (in words) ([2]; 18th week, compared to the model group, P<0.05): significant reductions; also recorded: inhibiting the increase
LDH [2, 7]: 1083.25 ± 375.4
LDH [2, 8]: 1022.5 ± 112.95
LDH [2, 9]: 401.5 ± 22.95
LDH [2, 10]: 368.5 ± 26.82
LDH [2, 11]: 361.88 ± 20.78
LDH [2, 12]: 719 ± 81.08
MDA ([3]; week 16 (8 weeks dosing)): 7.19 ± 1.15
SOD ([3]; week 16 (8 weeks dosing)): 1.06 ± 0.14 U/mL
MDA ([3]; week 18 (10 weeks dosing)): 6.08 ± 0.50
SOD ([3]; week 18 (10 weeks dosing)): 0.87 ± 0.03 U/mL
Effect on percentage of aortic plaque (in words) [4]: statistically significant compared with the model group; also recorded: reducing the area
% Patch area (aortic plaque) [4]: 8.43 ± 0.95 %
Heart [5]: 0.169 ± 0.010 g
Cardiac weight index ([5]; heart weight/tibial length, week 18): 0.095 ± 0.006 g/cm
Effect on body weight (in words) [6]: stabilized from the 10th to 11th week and overlapped with the control group's weight curve by the 14th week; also recorded: inhibiting the increase

CC(C)c1c(C(=O)Nc2ccccc2)c(-c2ccccc2)c(-c2ccc(F)cc2)n1CC[C@@H](O)C[C@@H](O)CC(=O)O [Atorvastatin, reference compound]
Effect on LDL-c (in words) [1]: significantly reduced
Effect on TC (in words) [1]: significantly reduced
HDL-C [1, 7]: 1.53 ± 0.15
LDL-C [1, 7]: 5.63 ± 0.34
TC [1, 7]: 10.12 ± 0.84
TG [1, 7]: 1.79 ± 0.14
HDL-C [1, 8]: 1.36 ± 0.13
LDL-C [1, 8]: 22.23 ± 1.6
TC [1, 8]: 28.87 ± 2.19
TG [1, 8]: 1.35 ± 0.17
HDL-C [1, 9]: 1.51 ± 0.06
LDL-C [1, 9]: 16.31 ± 0.92
TC [1, 9]: 22.38 ± 1.25
TG [1, 9]: 2.31 ± 0.18
HDL-C [1, 10]: 1.59 ± 0.09
LDL-C [1, 10]: 20.24 ± 2
TC [1, 10]: 27.29 ± 2.61
TG [1, 10]: 2.2 ± 0.13
HDL-C [1, 11]: 2.53 ± 0.12
LDL-C [1, 11]: 14.32 ± 1.08
TC [1, 11]: 19.14 ± 1.34
TG [1, 11]: 1.99 ± 0.2
HDL-C [1, 12]: 2.5 ± 0.18
LDL-C [1, 12]: 13.87 ± 1.51
TC [1, 12]: 18.89 ± 2.11
TG [1, 12]: 1.51 ± 0.09
LDH [2, 7]: 948.67 ± 117.19
LDH [2, 8]: 1176.67 ± 142.27
LDH [2, 9]: 620 ± 62.03
LDH [2, 10]: 422.67 ± 50.59
LDH [2, 11]: 384 ± 25.93
LDH [2, 12]: 1384.67 ± 191.24
SOD ([3]; week 16 (8 weeks dosing)): 0.87 ± 0.09 U/mL
SOD ([3]; week 18 (10 weeks dosing)): 0.99 ± 0.09 U/mL
Effect on percentage of aortic plaque (in words) [4]: significantly reduced
% Patch area (aortic plaque) [4]: 6.86 ± 1.21 %
Heart [5]: 0.192 ± 0.009 g
Effect on body weight (in words) [6]: significantly greater than those in the control group

Reference: patent US20250127754A1, “Pharmaceutical Application of Dimyricetin-yl-diselenide in Atherosclerosis” (Shanghai Spark Pharmaceutical Co., Ltd., priority 2023, published 2025)
